According to patent publication US4202898A, “Method of treating anxiety and depression” (priority 1978, dated 1980):
Like-named read-outs stand apart in the source and are kept apart here.

Columns and labels:
LD 50 toxicity, oral = details: in vivo, p.o., tested as hydrochlorides
[1] = 4 plates test (percentage of desinibition observed in the mouse); type: in vivo; details: for change in vivo at 1 mg/kg / change in vivo at 3 mg/kg / change in vivo at 10 mg/kg / change in vivo at 30 mg/kg: po, 1 h; for change in vivo at 1 mg/kg: read-out: percentage of desinibition (ACTIVITY, 1 mg/kg p.o.); for change in vivo at 3 mg/kg: read-out: percentage of desinibition (ACTIVITY, 3 mg/kg p.o.); for change in vivo at 10 mg/kg: read-out: percentage of desinibition (ACTIVITY, 10 mg/kg p.o.); for change in vivo at 30 mg/kg: 30 mg/kg p.o.
Experimental: This activity has been tested by the 4 plates test (Aron C. These de Medecine--Paris 1970; Boissier JR--Simon P. and Aron C., A new method for rapid screening of minor tranquillizers in mice, Europ. J. Pharmacol. 1968, 4, 145-151). The substances are administered in several doses (0.3, 1.0, 3.0, 10 and 30 mg/kg) per os, 60 minutes before the test.
The results, which give the percentage of desinibition observed in the mouse, are shown as Examples III-XVIII. At the same doses, the greater the percentage the higher the activity of the piperazine. The results for two known anxiolytic agents are set forth in Examples XIX and XX.

[2] = mouse, 60 minutes before the test
[3] = mouse, 1 mg/kg p.o., 60 minutes before the test
[4] = mouse, 3 mg/kg p.o., 60 minutes before the test
[5] = mouse, 10 mg/kg p.o., 60 minutes before the test

SMILES | LD50 (LD 50 toxicity, oral) [mg/kg] | percentage of desinibition (ACTIVITY, 0.3 mg/kg p.o.) [1, 2] | change in vivo at 1 mg/kg [1, 3] [%] | change in vivo at 3 mg/kg [1, 4] [%] | change in vivo at 10 mg/kg [1, 5] [%] | change in vivo at 30 mg/kg [1, 2] [%] | change in vivo at 3 mg/kg ([1]; Mus musculus) [%] | change in vivo at 10 mg/kg ([1]; Mus musculus) [%] | change in vivo at 1 mg/kg ([1]; Mus musculus) [%]
OCCN1CCN(c2cccc(SC(F)(F)F)c2)CC1 [Example 3, [4-(3'-trifluoromethylthiophenyl)-piperazino]-ethanol] | 500 | +118% | 190 | 230 | 335 | 248 |  |  | 
OCCN1CCN(c2cccc(C(F)(F)F)c2)CC1 [Example 4] | 740 |  |  |  | 174 | 226 |  |  | 
OCCN1CCN(c2cccc(OC(F)(F)F)c2)CC1 [Example 5] | 575 |  | 8 | 9 | 14 | 88 |  |  | 
OCCN1CCN(c2cccc(Cl)c2)CC1 [Example 6] | 750 |  | 23 | 50 | 54 |  |  |  | 
OCCN1CCN(c2ccccc2)CC1 [Example 7] | 525 |  | 39 | 2 |  |  |  |  | 
CC(=O)OCCN1CCN(c2cccc(SC(F)(F)F)c2)CC1 [Example 8, (4-m-trifluoromethylthiophenyl-piperazino)-ethyl acetate] | 510 | +27% | 88 | 191 | 312 | 154 |  |  | 
CC(=O)OCCN1CCN(c2cccc(C(F)(F)F)c2)CC1 [Example 9] | 925 |  | 24 | 49 | 220 | 156 |  |  | 
Nc1ccccc1C(=O)OCCN1CCN(c2cccc(C(F)(F)F)c2)CC1 [Example 11] | 3000 |  | 35 | 63 | 182 | 336 |  |  | 
COc1ccc(Cl)cc1C(=O)OCCN1CCN(c2cccc(C(F)(F)F)c2)CC1 [Example 12] | 1800 |  |  |  | 65 |  |  |  | 
CNC(=O)OCCN1CCN(c2cccc(SC(F)(F)F)c2)CC1 [Example 13] |  |  |  |  |  |  | 49 | 152 | 
CN(C)C(=O)OCCN1CCN(c2cccc(SC(F)(F)F)c2)CC1 [Example 14] |  |  |  |  |  |  |  | 3 | 2
CCCCNC(=O)OCCN1CCN(c2cccc(SC(F)(F)F)c2)CC1 [Example 15] |  |  | 3 | 109 | 64 |  |  |  | 
O=C(Nc1ccccc1)OCCN1CCN(c2cccc(C(F)(F)F)c2)CC1 [Example 17] |  |  |  |  | 9 | 30 |  |  | 
O=C(Nc1ccccc1)OCCN1CCN(c2cccc(SC(F)(F)F)c2)CC1 [Example 18] |  | +15% | 23 | 63 | 304 | 532 |  |  | 
CC(C)(C)C(=O)OCCN1CCN(c2cccc(SC(F)(F)F)c2)CC1 [Example 21] |  |  | 73 | 122 | 196 |  |  |  | 
CNC1=Nc2ccc(Cl)cc2C(c2ccccc2)=[N+]([O-])C1 [chlordiazepozide, reference compound] |  |  | 43 | 86 | 24 |  |  |  | 
CCCC(C)(COC(N)=O)COC(N)=O [meprobamate, reference compound] |  |  |  | 53 | 38 | 142 |  |  | 
